Patent US12077503B2, “Substituted cyclic amides and their use as herbicides” (FMC CORPORATION, priority 2015, dated 2024)

Experiments:
Type in all cases: in vivo
[1] = system: ryegrass, Italian (Italian ryegrass, Lolium multiflorum); test: Test A postemergence; details: Lolium multiflorum, post-emergence, 240 h, 125 g ai/ha, postemergence, visual injury rating after approximately 10 d; read-out: Ryegrass, Italian plant response rating (0 to 100 scale, 0 no effect, 100 complete control)
How it was run: (§1)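 Each rating is a visual injury score from 0 to 100 given about 10 d after treatment, judged against untreated controls kept alongside in the greenhouse. In loam soil–sand blend, seeds got a preemergence directed soil spray, while postemergence plants were 2 to 10 cm tall at spraying.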

[2] = system: wheat (Triticum aestivum); test: Test A postemergence; details: Triticum aestivum, post-emergence, 240 h, 125 g ai/ha, postemergence, visual injury rating after approximately 10 d; read-out: Wheat plant response rating (0 to 100 scale, 0 no effect, 100 complete control)
How it was run: as §1

corn (Zea mays) = test: Test A postemergence; details: Zea mays, post-emergence, 240 h, 125 g ai/ha, postemergence, visual injury rating after approximately 10 d; read-out: Corn plant response rating (0 to 100 scale, 0 no effect, 100 complete control)
How it was run: as §1

[3] = system: pigweed (Amaranthus retroflexus); test: Test A postemergence; details: Amaranthus retroflexus, post-emergence, 240 h, 125 g ai/ha, postemergence, visual injury rating after approximately 10 d; read-out: Pigweed plant response rating (0 to 100 scale, 0 no effect, 100 complete control)
How it was run: as §1

[4] = system: blackgrass (Alopecurus myosuroides); test: Test A postemergence; details: Alopecurus myosuroides, post-emergence, 240 h, 125 g ai/ha, postemergence, visual injury rating after approximately 10 d; read-out: Blackgrass plant response rating (0 to 100 scale, 0 no effect, 100 complete control)
How it was run: as §1

[5] = system: barnyardgrass (Echinochloa crus-galli); test: Test A postemergence; details: Echinochloa crus-galli, post-emergence, 240 h, 125 g ai/ha, postemergence, visual injury rating after approximately 10 d; read-out: Barnyardgrass plant response rating (0 to 100 scale, 0 no effect, 100 complete control)
How it was run: as §1

[6] = system: Galium (catchweed bedstraw, Galium aparine); test: Test A postemergence; details: Galium, post-emergence, 240 h, 125 g ai/ha, postemergence, visual injury rating after approximately 10 d; read-out: Galium plant response rating (0 to 100 scale, 0 no effect, 100 complete control)
How it was run: as §1

[7] = system: ragweed (common ragweed, Ambrosia elatior); test: Test A postemergence; details: Ambrosia artemisiifolia, post-emergence, 240 h, 125 g ai/ha, postemergence, visual injury rating after approximately 10 d; read-out: Ragweed plant response rating (0 to 100 scale, 0 no effect, 100 complete control)
How it was run: as §1

Kochia (Kochia scoparia) [8] = test: Test A postemergence; details: Bassia scoparia, post-emergence, 240 h, 125 g ai/ha, postemergence, visual injury rating after approximately 10 d; read-out: Kochia plant response rating (0 to 100 scale, 0 no effect, 100 complete control)
How it was run: as §1

[9] = system: giant foxtail (Setaria faberii); test: Test A postemergence; details: Setaria faberi, post-emergence, 240 h, 125 g ai/ha, postemergence, visual injury rating after approximately 10 d; read-out: Foxtail, Giant plant response rating (0 to 100 scale, 0 no effect, 100 complete control)
How it was run: as §1

[10] = system: ryegrass, Italian (Italian ryegrass, Lolium multiflorum); test: Test A preemergence; details: Lolium multiflorum, pre-emergence, 240 h; for pest or weed control at 125 g/ha: 125 g ai/ha, preemergence, 0 to 100 scale where 0 is no effect and 100 is complete control, read-out: Ryegrass, Italian plant response rating; for pest or weed control at 500 g/ha: 500 g ai/ha, Preemergence, visual injury vs untreated controls after approximately 10 d, read-out: Ryegrass, Italian plant response rating (0 to 100 scale where 0 is no effect and 100 is complete control)
How it was run: as §1

[11] = system: pigweed (Amaranthus retroflexus); test: Test A preemergence; details: Amaranthus retroflexus, pre-emergence, 240 h; for pest or weed control at 125 g/ha: 125 g ai/ha, preemergence, 0 to 100 scale where 0 is no effect and 100 is complete control, read-out: Pigweed plant response rating; for pest or weed control at 500 g/ha: 500 g ai/ha, Preemergence, visual injury vs untreated controls after approximately 10 d, read-out: Pigweed plant response rating (0 to 100 scale where 0 is no effect and 100 is complete control)
[12] = system: barnyardgrass (Echinochloa crus-galli); test: Test A preemergence; details: Echinochloa crus-galli, pre-emergence, 240 h; for pest or weed control at 125 g/ha: 125 g ai/ha, preemergence, 0 to 100 scale where 0 is no effect and 100 is complete control, read-out: Barnyardgrass plant response rating; for pest or weed control at 500 g/ha: 500 g ai/ha, Preemergence, visual injury vs untreated controls after approximately 10 d, read-out: Barnyardgrass plant response rating (0 to 100 scale where 0 is no effect and 100 is complete control)
How it was run: as §1

[13] = system: ragweed (common ragweed, Ambrosia elatior); test: Test A preemergence; details: Ambrosia artemisiifolia, pre-emergence, 240 h; for pest or weed control at 125 g/ha: 125 g ai/ha, preemergence, 0 to 100 scale where 0 is no effect and 100 is complete control, read-out: Ragweed plant response rating; for pest or weed control at 500 g/ha: 500 g ai/ha, Preemergence, visual injury vs untreated controls after approximately 10 d, read-out: Ragweed plant response rating (0 to 100 scale where 0 is no effect and 100 is complete control)
How it was run: as §1

Kochia (Kochia scoparia) [14] = test: Test A preemergence; details: Bassia scoparia, pre-emergence, 240 h; for pest or weed control at 125 g/ha: 125 g ai/ha, preemergence, 0 to 100 scale where 0 is no effect and 100 is complete control, read-out: Kochia plant response rating; for pest or weed control at 500 g/ha: 500 g ai/ha, Preemergence, visual injury vs untreated controls after approximately 10 d, read-out: Kochia plant response rating (0 to 100 scale where 0 is no effect and 100 is complete control)
How it was run: as §1

[15] = system: giant foxtail (Setaria faberii); test: Test A preemergence; details: Setaria faberi, pre-emergence, 240 h; for pest or weed control at 125 g/ha: 125 g ai/ha, preemergence, 0 to 100 scale where 0 is no effect and 100 is complete control, read-out: Foxtail, Giant plant response rating; for pest or weed control at 500 g/ha: 500 g ai/ha, Preemergence, visual injury vs untreated controls after approximately 10 d, read-out: Foxtail, Giant plant response rating (0 to 100 scale where 0 is no effect and 100 is complete control)
How it was run: as §1

| SMILES | pest or weed control at 125 g/ha [1] | plant injury at 125 g/ha [2] | plant injury at 125 g/ha (corn (Zea mays)) | pest or weed control at 125 g/ha [3] | pest or weed control at 125 g/ha [4] | pest or weed control at 125 g/ha [5] | pest or weed control at 125 g/ha [6] | pest or weed control at 125 g/ha [7] | pest or weed control at 125 g/ha (Kochia (Kochia scoparia) [8]) | pest or weed control at 125 g/ha [9] | pest or weed control at 125 g/ha [10] | pest or weed control at 500 g/ha [10] | pest or weed control at 125 g/ha [11] | pest or weed control at 500 g/ha [11] | pest or weed control at 125 g/ha [12] | pest or weed control at 500 g/ha [12] | pest or weed control at 125 g/ha [13] | pest or weed control at 500 g/ha [13] | pest or weed control at 125 g/ha (Kochia (Kochia scoparia) [14]) | pest or weed control at 500 g/ha (Kochia (Kochia scoparia) [14]) | also measured |
| --- | --- | --- | --- | --- | --- | --- | --- | --- | --- | --- | --- | --- | --- | --- | --- | --- | --- | --- | --- | --- | --- |
| CC(C)c1cccc([C@H]2CN(C)C(=O)[C@@H]2C(=O)Nc2ccccc2S(C)(=O)=O)c1 [Compound 820] | 30% | 40% | 30% | 20% | 40% | 90% | 30% | 20% | 20% | 90% | 60% | 80% | 40% | 70% | 90% | 100% | 20% | 60% | 70% | 80% | pest or weed control at 125 g/ha [15]: 90%; pest or weed control at 500 g/ha [15]: 100% |
| CC(C)c1cccc([C@H]2CN(C)C(=O)[C@@H]2C(=O)Nc2ccc(F)cc2F)c1 [Compound 821] | 20% | 0% | 40% | 0% | 70% | 90% | 50% | 0% | 30% | 80% | 80% | 90% | 50% | 50% | 90% | 90% | 0% | 0% | 70% | 90% | pest or weed control at 125 g/ha [15]: 90%; pest or weed control at 500 g/ha [15]: 100% |
| CN1C[C@H](c2cccc(F)c2)[C@@H](C(=O)Nc2ccccc2F)C1=O [Compound 822] | 20% | 0% | 20% | 0% | 0% | 90% | 20% | 0% | 0% | 90% | 20% | 40% | 0% | 50% | 90% | 100% | 0% | 30% | 70% | 80% | pest or weed control at 125 g/ha [15]: 90%; pest or weed control at 500 g/ha [15]: 100% |
| Cc1c(F)cccc1NC(=O)[C@H]1C(=O)NC[C@@H]1c1cccc(C(F)(F)F)c1 [Compound 826] | 60% | 60% | 80% | 30% | 80% | 100% | 50% | 50% | 30% | 90% | 70% | 80% | 0% | 60% | 90% | 100% | 20% | 80% | 70% | 90% | pest or weed control at 125 g/ha [15]: 100%; pest or weed control at 500 g/ha [15]: 100% |
| Cc1cc(F)ccc1NC(=O)[C@H]1C(=O)NC[C@@H]1c1cccc(C(F)(F)F)c1 [Compound 828] | 20% | 20% | 40% | 0% | 50% | 70% | 30% | 0% | 0% | 90% | 50% | 70% | 0% | 0% | 70% | 90% | 0% | 0% | 40% | 40% | pest or weed control at 125 g/ha [15]: 90%; pest or weed control at 500 g/ha [15]: 100% |
| Cc1c(F)ccc([C@H]2CN(C)C(=O)[C@@H]2C(=O)Nc2ccccc2F)c1F [Compound 833] | 60% | 0% | 20% | 0% | 40% | 90% | 40% | 0% | 30% | 90% | 70% | 80% | 0% | 0% | 90% | 90% | 0% | 20% | 70% | 80% | pest or weed control at 125 g/ha [15]: 90%; pest or weed control at 500 g/ha [15]: 100% |
